# Tested on: MM.1S multiple myeloma cells
# Test: Disseminated MM.1S multiple myeloma model in NSG mice
# Format: in vivo
# From the text: Female NOD severe combined immune deficient (SCID) gamma (NSG) mice 8-9 weeks of age were inoculated with 5×10^6 multiple myeloma MM.1S cells into the tail vein. Randomization by body weight and start of treatment was initiated 7 days post tumor inoculation. The treatment groups are outlined in Table 10. […] Groups 1-10 (n=6/group) were monitored for survival endpoint characterized by >20% body weight loss and clinical signs including lethargy, hind limb paralysis or moribundity. Groups 11-20 (n=3/group) were used for bone marrow harvest and analysis of tumor burden on day 28 post tumor cell inoculation. For all groups, body weights were monitored 1-2×/week.
# Tumor burden was assessed and quantified by detection of hCD138 positive (hCD138+) cells in the bone marrow. Bone marrow cells from mouse femur and tibia were pooled and assessed for human CD138+ expression using the Alexa Fluor 647 mouse anti-human CD138 clone MI15 (BD Biosciences #562097) according to the manufacturer's protocol. […] Data was analyzed using Flowjo (Tree Star, Inc., Ashland, Oreg.).
# Female NOD severe combined immune deficient (SCID) gamma (NSG) mice 9-12 weeks of age were inoculated with 5×10^6 multiple myeloma MM.1S cells into the tail vein. […] Body weights were monitored 1-2×/week. […]
Compound,"mean survival (Example 9, 0.8 mg/kg Velcade q7dx2 IP, vehicle 30.6 days)","effect on survival compared to vehicle control (Example 9, single agent at 3 or 10 mg/kg, single IP)"
"CC(C)C[C@H](NC(=O)[C@H](Cc1ccccc1)NC(=O)c1cnccn1)B(O)O [Velcade, bortezomib]",40.6 days,–
"Daratumumab: MM standard of care agent, clinical grade Daratumumab",–,no significant effect on survival compared to vehicle control
